# From ChEMBL document CHEMBL1649413, “Structure-activity relationship of 4(5)-aryl-2-amino-1H-imidazoles, N1-substituted 2-aminoimidazoles and imidazo[1,2-a]pyrimidinium salts as inhibitors of biofilm formation by Salmonella typhimurium and Pseudomonas aeruginosa” (J Med Chem, 2011)
# pIC50: −log10 of the molar value. Activity calls are given as the source filed them. The rule behind the calls is not given here.
# Assays:
# [1] = test system: Salmonella typhimurium; test: Antimicrobial activity against Salmonella Typhimurium ATCC 14028 assessed as inhibition of planktonic growth at 400 uM at 25 degC after 24 hrs; type: functional, organism-based; settings: Salmonella enterica subsp. enterica serovar Typhimurium
# [2] = test system: Salmonella typhimurium; test: Antibiofilm activity in Salmonella Typhimurium ATCC 14028 assessed as inhibition of biofilm formation at 25 degC after 24 hrs; type: functional, organism-based, Salmonella enterica subsp. enterica serovar Typhimurium; settings: Salmonella enterica, ATCC 14028, 24 h
# [3] = test system: Pseudomonas aeruginosa; test: Antibiofilm activity in Pseudomonas aeruginosa assessed as inhibition of biofilm formation at 25 degC after 24 hrs; type: functional, organism-based
# [4] = test system: Pseudomonas aeruginosa; test: Antimicrobial activity against Pseudomonas aeruginosa assessed as inhibition of planktonic growth at 20 uM at 25 degC after 24 hrs; type: functional, organism-based
# [5] = test system: Pseudomonas aeruginosa; test: Antimicrobial activity against Pseudomonas aeruginosa assessed as inhibition of planktonic growth at 40 uM at 25 degC after 24 hrs; type: functional, organism-based
# [6] = test system: Salmonella typhimurium; test: Antimicrobial activity against Salmonella Typhimurium ATCC 14028 assessed as inhibition of planktonic growth at 20 uM at 25 degC after 24 hrs; type: functional, organism-based; settings: Salmonella enterica subsp. enterica serovar Typhimurium
# [7] = test system: Salmonella typhimurium; test: Antimicrobial activity against Salmonella Typhimurium ATCC 14028 assessed as inhibition of planktonic growth at 10 uM at 25 degC after 24 hrs; type: functional, organism-based; settings: Salmonella enterica subsp. enterica serovar Typhimurium
SMILES,inhibition [1],pIC50 [2],pIC50 [3],other results
CCCCCCCCCCCCNc1ncccn1,inactive,–,–,–
CCCCCCCCn1c(-c2ccc(-c3ccc(-c4ccccc4)cc3)cc2)cnc1N,–,3.07,< 3.10,–
CC(C)C[n+]1c(-c2ccc([N+](=O)[O-])cc2)cn2cccnc21.[O-][Cl+3]([O-])([O-])[O-],–,3.39,< 3.10,–
c1ccc(CNc2ncccn2)cc1,inactive,–,–,–
Nc1ncc(-c2ccccc2)n1Cc1ccc2c(c1)OCO2,–,4.01,3.98,–
c1cnc(NC2CC2)nc1,inactive,–,–,–
CCCCCCCCn1c(-c2ccc(-c3ccc([N+](=O)[O-])cc3)cc2)cnc1N,–,3.93,< 3.10,–
c1cnc(NC2CCCCCCC2)nc1,inactive,–,–,–
Nc1ncc(-c2ccc(Cl)cc2)n1Cc1ccccc1,–,4.55,4.83,–
c1cnc(NC2CCCCC2)nc1,inactive,–,–,–
Cc1ccc(-c2cnc(N)n2C)cc1,–,4.21,4.50,–
Cn1c(-c2ccc(Cl)cc2)cnc1N,–,3.97,3.95,–
COc1cccc(Nc2ncccn2)c1,inactive,–,–,–
Cc1cccc(Nc2ncccn2)c1,inactive,–,–,–
c1cnc(NCc2ccc3c(c2)OCO3)nc1,inactive,–,–,–
CCCCCCCCCCCCCCNc1ncccn1,inactive,–,–,–
CCCCCCCCCCCn1c(-c2ccc(-c3ccccc3)cc2)cnc1N,–,4.22,< 3.40,–
CCn1c(-c2ccc(Br)cc2)cnc1N,–,3.90,4.22,–
Nc1ncc(-c2ccc(Cl)cc2)n1C1CC1,–,4.26,4.89,inhibition [4]: inactive
CC(C)n1c(-c2ccc([N+](=O)[O-])cc2)cnc1N,–,3.44,< 3.10,–
CCCCCCCNc1ncccn1,inactive,–,–,–

SMILES,inhibition [1],pIC50 [2],pIC50 [3],other results
Nc1ncc(-c2ccc(-c3ccccc3)cc2)n1C1CCC1,–,4.58,4.61,–
Nc1nc(-c2ccccc2)c(-c2ccc(Cl)cc2)[nH]1,–,4.33,–,–
Cn1c(-c2ccccc2)cnc1N,–,3.37,4.02,–
CC(C)[n+]1c(-c2ccc([N+](=O)[O-])cc2)cn2cccnc21.[O-][Cl+3]([O-])([O-])[O-],–,< 3.10,< 3.10,–
Cc1ccc(CNc2ncccn2)cc1,inactive,–,–,–
CS(=O)(=O)c1ccc(-c2cnc(N)[nH]2)cc1,–,< 3.10,< 3.10,–
CC(C)(C)[Si](C)(C)Oc1ccc(CNc2ncccn2)cc1,inactive,–,–,–
Nc1ncc(-c2ccccc2)n1C1CCCC1,–,4.15,4.90,inhibition [4]: inactive
C#CCN(C)c1ncccn1,inactive,–,–,–
Cc1ccc(CNc2ncccn2)c(C)c1,inactive,–,–,–
c1cnc(NC2CCCCCCCCCCC2)nc1,inactive,–,–,–
CCCCCCCC[n+]1c(-c2ccc(S(C)(=O)=O)cc2)cn2cccnc21.[O-][Cl+3]([O-])([O-])[O-],–,4.09,4.30,–
Cc1ccc(-c2cnc(N)[nH]2)cc1,–,4.11,4.34,–
CCCCCCCCCNc1ncccn1,inactive,–,–,–
Brc1ccccc1Nc1ncccn1,inactive,–,–,–
CCCCCn1c(-c2ccc(-c3ccccc3)cc2)cnc1N,–,5.04,4.13,–
Cn1c(-c2ccc(C#N)cc2)cnc1N,–,< 3.40,3.48,–
CN(C)c1ncccn1,inactive,–,–,–
CCCCCCCCCCCNc1ncccn1,inactive,–,–,–
CCCCCCn1c(-c2ccccc2)cnc1N,–,4.40,4.72,inhibition [5]: inactive; inhibition [4]: inactive
Nc1ncc(-c2ccccc2)n1Cc1ccccc1,–,4.26,4.58,–

SMILES,inhibition [1],pIC50 [2],pIC50 [3],other results
COc1ccc(CCn2c(-c3ccccc3)cnc2N)cc1OC,–,3.73,4.28,–
c1ccc(Nc2ncccn2)cc1,inactive,–,–,–
Nc1ncc(-c2ccc(F)cc2)n1Cc1ccccc1,–,4.43,4.49,–
CCCCCCn1c(-c2ccc(-c3ccccc3)cc2)cnc1N,–,4.92,4.49,inhibition [6]: Active; inhibition [7]: Active
CCCC[n+]1c(-c2ccc([N+](=O)[O-])cc2)cn2cccnc21.[O-][Cl+3]([O-])([O-])[O-],–,< 3.40,< 3.10,–
C=CCNc1ncccn1,inactive,–,–,–
c1cnc(NC2CCC2)nc1,inactive,–,–,–
N#Cc1ccc(-c2cnc(N)[nH]2)cc1,–,3.50,–,–
CCCCCNc1ncccn1,inactive,–,–,–
Cc1ccc(-c2nc(N)n(-c3ccccc3)c2-c2ccc(Cl)cc2)cc1,–,< 3.40,< 3.10,–
Nc1ncc(-c2ccccc2)n1C1CC1,–,4.05,4.46,–
CCn1c(-c2ccccc2)cnc1N,–,3.69,4.68,inhibition [5]: inactive; inhibition [4]: inactive
Nc1ncc(-c2ccc(Cl)cc2)n1C1CCCCCCCCCCC1,–,3.92,< 3.10,–
COc1ccc(-c2cnc(N)[nH]2)cc1,–,3.92,3.73,–
CCCCn1c(-c2ccc([N+](=O)[O-])cc2)cnc1N,–,3.94,3.43,–
Nc1ncc(-c2ccc(Br)cc2)n1Cc1ccccc1,–,4.13,4.24,–
Cc1ccc(-c2cnc(N)n2C(C)C)cc1,–,3.69,3.62,–
CCCCCCCCCCNc1ncccn1,inactive,–,–,–
CCCCCCNc1ncccn1,inactive,–,–,–
CCn1c(-c2ccc(F)cc2)cnc1N,–,3.54,4.17,–
O=[N+]([O-])c1ccc(-c2cn3cccnc3[n+]2Cc2ccccc2)cc1.[O-][Cl+3]([O-])([O-])[O-],–,3.77,< 3.10,–

SMILES,inhibition [1],pIC50 [2],pIC50 [3],other results
CC[n+]1c(-c2ccc([N+](=O)[O-])cc2)cn2cccnc21.[O-][Cl+3]([O-])([O-])[O-],–,< 3.10,< 3.10,–
CCCCn1c(-c2ccc(Br)cc2)cnc1N,–,4.79,4.73,–
O=[N+]([O-])c1ccc(-c2cn3cccnc3[n+]2C2CCCCC2)cc1.[O-][Cl+3]([O-])([O-])[O-],–,3.25,3.60,–
CCCCCCCCNc1ncccn1,inactive,–,–,–
CCn1c(-c2ccc([N+](=O)[O-])cc2)cnc1N,–,3.54,3.90,–
COc1ccc(CCNc2ncccn2)cc1,inactive,–,–,–
CCCCCCCCCCCCCNc1ncccn1,inactive,–,–,–
c1cnc(NC2CCCC2)nc1,inactive,–,–,–
CCNc1ncccn1,inactive,–,–,–
CCCNc1ncccn1,inactive,–,–,–
Nc1nc(-c2ccc(Cl)cc2)c(-c2cc(F)cc(F)c2)[nH]1,–,4.14,–,–
COc1ccc(Cn2c(-c3ccccc3)cnc2N)cc1OC,–,3.81,3.80,–
CCCCn1c(-c2ccc(F)cc2)cnc1N,–,4.25,4.25,–
CCCCNc1ncccn1,inactive,–,–,–
CCCCCCCCn1c(-c2ccc(OC)cc2)cnc1N,–,5.07,5.92,inhibition [6]: Active; inhibition [7]: inactive; inhibition [4]: inactive
c1cnc(NC2CCCCCC2)nc1,inactive,–,–,–
COc1ccc(-c2[nH]c(N)nc2-c2ccccc2)cc1,–,4.11,–,–
Cn1c(-c2ccc([N+](=O)[O-])cc2)cnc1N,–,3.79,4.16,–
C[n+]1c(-c2cccc([N+](=O)[O-])c2)cn2cccnc21.[O-][Cl+3]([O-])([O-])[O-],–,3.37,< 3.10,–
Nc1ncc(-c2ccc(-c3ccccc3)cc2)n1C1CCCCCCCCCCC1,–,< 3.10,< 3.10,–
CCCCCCCCCCCCCCn1c(-c2ccc(-c3ccccc3)cc2)cnc1N,–,< 3.10,< 3.40,–
